For assay [1], the target named is AMP-activated protein kinase (AMPK), native rat liver αβγ complex (γ1 subunit) (Rattus norvegicus, UniProt P80385). In words: kinase activity assay of purified rat liver AMPK. In kind it is biochemical.
Assay [2] concerns the target AMPK γ2 subunit (Bateman domains) (Homo sapiens, UniProt Q9UGJ0). In words: scintillation proximity assay, displacement of [3H]AMP by unlabelled AMP. In kind it is binding.

AMPK γ2 subunit (Bateman domains), sequence (Q9UGJ0 275-562 limits assumed): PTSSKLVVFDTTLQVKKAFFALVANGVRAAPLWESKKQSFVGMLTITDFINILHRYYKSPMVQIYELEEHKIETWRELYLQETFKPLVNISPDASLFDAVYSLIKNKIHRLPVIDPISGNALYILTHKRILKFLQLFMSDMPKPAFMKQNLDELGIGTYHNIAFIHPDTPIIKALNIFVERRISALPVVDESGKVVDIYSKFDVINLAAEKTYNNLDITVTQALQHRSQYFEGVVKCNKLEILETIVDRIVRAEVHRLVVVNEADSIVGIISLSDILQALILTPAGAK
AMP-activated protein kinase (AMPK), native rat liver αβγ complex (γ1 subunit), sequence (P80385 whole entry, the tested form may be a part): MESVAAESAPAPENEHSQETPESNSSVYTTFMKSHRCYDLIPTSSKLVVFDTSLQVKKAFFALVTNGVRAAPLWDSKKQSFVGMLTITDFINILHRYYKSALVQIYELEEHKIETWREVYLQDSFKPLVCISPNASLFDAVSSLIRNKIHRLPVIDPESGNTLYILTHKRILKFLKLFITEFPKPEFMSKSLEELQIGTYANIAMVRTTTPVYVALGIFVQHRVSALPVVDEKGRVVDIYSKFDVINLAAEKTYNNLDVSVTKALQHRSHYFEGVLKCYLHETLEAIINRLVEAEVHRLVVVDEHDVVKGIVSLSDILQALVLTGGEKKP
AMP-activated protein kinase (AMPK), native rat liver αβγ complex (γ1 subunit), sequence (P54645 whole entry partner, the tested form may be a part): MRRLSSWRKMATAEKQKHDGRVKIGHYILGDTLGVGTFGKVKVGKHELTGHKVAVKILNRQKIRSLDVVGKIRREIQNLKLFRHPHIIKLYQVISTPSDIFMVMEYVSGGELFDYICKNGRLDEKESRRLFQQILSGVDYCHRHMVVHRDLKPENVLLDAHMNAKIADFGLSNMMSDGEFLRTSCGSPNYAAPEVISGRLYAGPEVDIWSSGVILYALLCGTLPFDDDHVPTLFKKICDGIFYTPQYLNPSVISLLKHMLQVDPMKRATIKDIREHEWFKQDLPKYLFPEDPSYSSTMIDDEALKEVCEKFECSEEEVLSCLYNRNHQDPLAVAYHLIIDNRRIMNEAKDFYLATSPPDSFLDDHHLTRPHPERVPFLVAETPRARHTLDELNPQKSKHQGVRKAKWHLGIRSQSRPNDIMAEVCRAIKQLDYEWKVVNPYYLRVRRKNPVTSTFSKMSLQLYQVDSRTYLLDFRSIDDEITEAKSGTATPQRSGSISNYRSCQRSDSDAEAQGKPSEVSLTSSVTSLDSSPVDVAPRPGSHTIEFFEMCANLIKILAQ
AMP-activated protein kinase (AMPK), native rat liver αβγ complex (γ1 subunit), sequence (Q09137 whole entry partner, the tested form may be a part): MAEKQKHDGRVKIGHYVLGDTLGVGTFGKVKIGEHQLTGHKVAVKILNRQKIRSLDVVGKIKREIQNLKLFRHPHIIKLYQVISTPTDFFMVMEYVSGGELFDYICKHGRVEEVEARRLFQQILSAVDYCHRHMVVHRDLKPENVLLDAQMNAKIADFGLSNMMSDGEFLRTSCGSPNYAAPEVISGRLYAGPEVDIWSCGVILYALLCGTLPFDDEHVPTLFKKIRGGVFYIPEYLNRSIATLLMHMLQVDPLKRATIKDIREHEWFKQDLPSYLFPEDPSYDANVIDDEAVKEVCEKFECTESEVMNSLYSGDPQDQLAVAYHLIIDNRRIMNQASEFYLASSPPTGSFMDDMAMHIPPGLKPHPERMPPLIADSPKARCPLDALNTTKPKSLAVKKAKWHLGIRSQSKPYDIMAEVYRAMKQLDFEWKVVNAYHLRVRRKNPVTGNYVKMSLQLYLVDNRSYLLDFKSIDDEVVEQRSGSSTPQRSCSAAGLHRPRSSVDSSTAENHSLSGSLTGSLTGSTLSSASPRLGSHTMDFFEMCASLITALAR
AMP-activated protein kinase (AMPK), native rat liver αβγ complex (γ1 subunit), sequence (P80386 2-270 partner): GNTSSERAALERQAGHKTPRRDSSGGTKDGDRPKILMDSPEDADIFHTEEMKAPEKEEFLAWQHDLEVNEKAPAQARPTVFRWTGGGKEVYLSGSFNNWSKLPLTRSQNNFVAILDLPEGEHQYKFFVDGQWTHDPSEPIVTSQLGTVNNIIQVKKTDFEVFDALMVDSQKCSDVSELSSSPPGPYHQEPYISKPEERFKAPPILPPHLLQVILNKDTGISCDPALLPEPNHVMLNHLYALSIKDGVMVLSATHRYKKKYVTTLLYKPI

In assay [1], `Nc1ncnc2c1ncn2[C@@H]1O[C@H](COP(=O)(O)O)[C@@H](O)[C@H]1O` [AMP] showed an EC50 of 6 ± 3 µM. The Kd in assay [2] turned out to be 80 ± 15 µM.

For the origin of these results see PMC2156105 (The Journal of biological chemistry, 2007).
